The values below come from US20110039795A1, “2'-O,3'-N-BRIDGED MACROLIDES” (priority 2008, published 2011).

This assay deals with CD1 mice. Put plainly: Phorbol 12-myristate 13-acetate induced ear edema in CD1 mice. It counts as in vivo. The settings on record: Mus musculus, topical, 6 h; applied topically once in a dose 500 μg/ear; PMA induced ear edema. The procedure:
Phorbol 12-Myristate 13-Acetate Induced Ear Edema in CD1 Mice
Male CD1 mice (Charles River, France) weighing 30-40 g are randomly grouped (n=8 in test group of which the untreated ear serves as negative control; 8 in positive control group which also serves as their own negative control group). Test compounds, as well as vehicle (Trans-phase Delivery system, containing benzyl alcohol 10%, acetone 40% and isopropanol 50%) (all from Kemika, Croatia), are administered topically to the internal surface of the left ear 30 minutes prior to administration of phorbol 12-myristate 13-acetate (PMA) (Sigma, USA). Test compounds are administered at a dose 500 μg in 15 μL per ear. 30 minutes later, 0.01% PMA solution in acetone is applied topically to the inner surface of the left ear of each animal in a volume of 12 μL per ear. During the treatment and challenge, animals are anesthetized with anesthesia by inhalation. 6 h following challenge, animals are euthanized by intraperitoneal thiopental injection (PLIVA, Croatia). For assessing the auricular edema, 8 mm discs are cut out of left and right auricular pinna and weighed. The degree of edema is calculated by subtracting the weight of 8 mm disc of the untreated ear from that of the treated contralateral ear. The inhibition of edema in the treated animals is expressed as percentage compared to control mice.

As to `CC[C@H]1OC(=O)[C@H](C)[C@@H](O[C@H]2C[C@@](C)(OC)[C@@H](O)[C@H](C)O2)[C@H](C)[C@@H](O[C@@H]2O[C@H](C)C[C@H]3[C@H]2OC(=NCc2ccccc2)N3C)[C@](C)(O)C[C@@H](C)CN(C)[C@H](C)[C@@H](O)[C@]1(C)O` (single isomer, unassigned) [Example 1, N′-Benzyl-2′-O,3′-N-(carbonimidoyl)-3′-N-demethyl-9-deoxo-9a-methyl-9a-aza-9a-homoerythromycin A], the inhibition in vivo at 500 µg/ear is > 50%.

For the compound `CC[C@H]1OC(=O)[C@H](C)[C@@H](O[C@H]2C[C@@](C)(OC)[C@@H](O)[C@H](C)O2)[C@H](C)[C@@H](O[C@@H]2O[C@H](C)C[C@H]3[C@H]2OC(=Nc2cccc4ccccc24)N3C)[C@](C)(O)C[C@@H](C)CN(C)[C@H](C)[C@@H](O)[C@]1(C)O` (single isomer, unassigned) [Example 2, 2′-O,3′-N-(Carbonimidoyl)-3′-N-demethyl-9-deoxo-9a-methyl-N′-(1-naphthyl)-9a-aza-9a-homoerythromycin A], the inhibition in vivo at 500 µg/ear was > 50%.

Turning to `CC[C@H]1OC(=O)[C@H](C)[C@@H](O[C@H]2C[C@@](C)(OC)[C@@H](O)[C@H](C)O2)[C@H](C)[C@@H](O[C@@H]2O[C@H](C)C[C@H]3[C@H]2OC(=NC(C)C)N3C)[C@](C)(O)C[C@@H](C)CN(C)[C@H](C)[C@@H](O)[C@]1(C)O` (single isomer, unassigned) [Example 3, 2′-O,3′-N-(Carbonimidoyl)-3′-N-demethyl-9-deoxo-N′-isopropyl-9a-methyl-9a-aza-9a-homoerythromycin A], the inhibition in vivo at 500 µg/ear was > 50%.

Turning to `CC[C@H]1OC(=O)[C@H](C)[C@@H](O[C@H]2C[C@@](C)(OC)[C@@H](O)[C@H](C)O2)[C@H](C)[C@@H](O[C@@H]2O[C@H](C)C[C@H]3[C@H]2OC(=NC(C)C)N3C)[C@](C)(OC)C[C@@H](C)C(=O)N[C@H](C)[C@@H](O)[C@]1(C)O` (single isomer, unassigned) [Example 7, 2′-O,3′-N-(Carbonimidoyl)-3′-N-demethyl-N′-isopropyl-6-O-methyl-9a-aza-9a-homoerythromycin A], the inhibition in vivo at 500 µg/ear is > 50%.

Turning to `CC[C@H]1OC(=O)[C@H](C)[C@@H](O[C@H]2C[C@@](C)(OC)[C@@H](O)[C@H](C)O2)[C@H](C)[C@@H](O[C@@H]2O[C@H](C)C[C@H]3[C@H]2OC(=NCCCN(CC)CC)N3C)[C@](C)(OC)C[C@@H](C)C(=O)N[C@H](C)[C@@H](O)[C@]1(C)O` (single isomer, unassigned) [Example 8, 2′-O,3′-N-(Carbonimidoyl)-3′-N-demethyl-N′-[3-(diethylamino)propyl]-6-O-methyl-9a-aza-9a-homoerythromycin A], the inhibition in vivo at 500 µg/ear was > 50%.

For the compound `CC[C@H]1OC(=O)[C@H](C)[C@@H](O[C@H]2C[C@@](C)(OC)[C@@H](O)[C@H](C)O2)[C@H](C)[C@@H](O[C@@H]2O[C@H](C)C[C@H]3[C@H]2OC(=NC(C)C)N3C)[C@](C)(OC)C[C@@H](C)C(=O)[C@H](C)[C@@H](O)[C@]1(C)O` (single isomer, unassigned) [Example 11, 2′-O,3′-N-(Carbonimidoyl)-3′-N-demethyl-N′-isopropyl-6-O-methyl-erythromycin A], the inhibition in vivo at 500 µg/ear was > 50%.

As for `CC[C@H]1OC(=O)[C@H](C)[C@@H](O[C@H]2C[C@@](C)(OC)[C@@H](O)[C@H](C)O2)[C@H](C)[C@@H](O[C@@H]2O[C@H](C)C[C@H]3[C@H]2O/C(=N/CCCN(CC)CC)N3C)[C@](C)(OC)C[C@@H](C)C(=O)[C@H](C)[C@@H](O)[C@]1(C)O` (single isomer, unassigned) [Example 12, 2′-O,3′-N-(Carbonimidoyl)-3′-N-demethyl-N′-[3-(diethylamino)propyl]-6-O-methyl-erythromycin A], the inhibition in vivo at 500 µg/ear was > 50%.

Take `CC[C@H]1OC(=O)[C@H](C)[C@@H](O[C@H]2C[C@@](C)(OC)[C@@H](O)[C@H](C)O2)[C@H](C)[C@@H](O[C@@H]2O[C@H](C)C[C@H]3[C@H]2OC(=NC)N3C)[C@](C)(OC)C[C@@H](C)C(=O)[C@H](C)[C@@H](O)[C@]1(C)O` (single isomer, unassigned) [Example 13, 2′-O,3′-N-(Carbonimidoyl)-3′-N-demethyl-N′-methyl-6-O-methyl-erythromycin A]: the inhibition in vivo at 500 µg/ear is > 50%.

As for `CCN=C1O[C@H]2[C@H](O[C@@H]3[C@@H](C)[C@H](O[C@H]4C[C@@](C)(OC)[C@@H](O)[C@H](C)O4)[C@@H](C)C(=O)O[C@H](CC)[C@@](C)(O)[C@H](O)[C@@H](C)C(=O)[C@H](C)C[C@@]3(C)OC)O[C@H](C)C[C@@H]2N1C` (single isomer, unassigned) [Example 14, 2′-O,3′-N-(Carbonimidoyl)-3′-N-demethyl-N′-ethyl-6-O-methyl-erythromycin A], the inhibition in vivo at 500 µg/ear is > 50%.

For `CCN=C1O[C@H]2[C@H](O[C@@H]3[C@@H](C)[C@H](O[C@H]4C[C@@](C)(OC)[C@@H](O)[C@H](C)O4)[C@@H](C)C(=O)O[C@H](CC)[C@@](C)(O)[C@H](O)[C@@H](C)NC(=O)[C@H](C)C[C@@]3(C)OC)O[C@H](C)C[C@@H]2N1C` (single isomer, unassigned) [Example 15, 2′-O,3′-N-(Carbonimidoyl)-3′-N-demethyl-N′-ethyl-6-O-methyl-9a-aza-9a-homoerythromycin A], the inhibition in vivo at 500 µg/ear is > 50%.

The inhibition in vivo is the drop in the measured response relative to a control, in per cent. A high value points to strong suppression.
